Source: US20090118366A1, “ORGANIC COMPOUNDS” (Nabriva Therapeutics Forschungs GmbH, priority 2007, published 2009)

Tested on: cryopreserved primary human hepatocytes
Experiment: Metabolic stability in cryopreserved primary human hepatocytes
Type: in vitro ADME
Details: 4 h incubation with human hepatocytes, compound concentration 5 μg/mL, 37° C., LC/MS
Method: The metabolic stability for compounds of the present invention was determined by using cryopreserved primary human hepatocytes. 1×10^6 cells/mL were incubated in the absence and the presence of 5 and 25 μg/mL of the test compounds at 37° C., 5% CO2 for 4 hours, To evaluate the in vitro degradation under assay conditions, a sample of each test compound was incubated also in the absence of hepatocytes. The incubation was stopped by freezing the reaction mixture. After ultrafiltration and washing of the filter with acetonitrile, the sample solution was analyzed for parent compound disappearance or metabolite appearance using LC/MS (ion trap). The metabolic stability value corresponds to the detected parent compound in % after incubation.

Substance	parent compounds found (metabolic stability value) [%]
14-O-{[(1R, 2R, 5S)-5-Amino-2-hydroxy-cyclohexylsulfanyl]-acetyl}-mutilin hydrochloride+(1s, 2S, 5R) diastereomer hydrochloride [Example 2]	66
14-O-{[(1R, 3S)-3-Amino-cyclohexylsulfanyl]-acetyl}-mutilin hydrochloride and the (1S, S3R) diastereomer hydrochloride thereof	24
